Results as given in patent US7122668B2, “Platinum complexes and their use in therapy” (priority 2002, dated 2006).

Experiments:
[1] = system: A2780; assay: Microculture tetrazolium (MTS) cell survival assay; assay type: cell-based; settings: 24 hours incubation
Experimental: (§1) Cytotoxicity of the synthesized complexes was also tested by the MTS method^(21). Accordingly, the compounds were incubated for 24 hours with the corresponding cell lines and the cell survival in compound-treated cultures was evaluated.
(§2) The complexes were incubated for 24 hours with the above mentioned cell lines and the cell survival in compound-treated cultures was evaluated by the (microculture tetrazolium) MTS method as previously reported.

[2] = system: 41McisR; assay: Microculture tetrazolium (MTS) cell survival assay; assay type: cell-based
Experimental: as §1, §2

[3] = system: 41M; assay: Microculture tetrazolium (MTS) cell survival assay; assay type: cell-based; settings: 24 hours incubation
Experimental: as §1, §2

[4] = system: CH1; assay: Microculture tetrazolium (MTS) cell survival assay; assay type: cell-based; settings: 24 hours incubation
Experimental: as §1, §2

[5] = system: OV-1063 cells; settings: 5 hr, 6.5 μM
Text: (§3) (1) By staining of the C-26 and OV-1063 cells with Merocyanine 540 (MC 540) (Molecular probes, Oregon, USA) and 4′, 6-diamidino-2-phenylindone dihydrochloride (DAPI) (Molecular probes, Oregon, USA). This assay is based on the observation that soon after the initiation of apoptosis, phosphatidylserine (PS) translocates from the inner face of the plasma membrane to the cell surface. At this point, PS can be easily detected by staining with MC 540, which has a strong affinity to PS^(25). Chromatin condensation was assessed by staining with DAPI, which preferentially stains double stranded DNA. In the following experiments samples containing 5*10^5 cells were cultured on 6-well plates covered with a glass coverslip. After treatment of cells with IC50 of the complexes, cells were washed with PBS and incubated for 2 min in the dark in 500 μl of PBS containing 2.5 μl of MC 540 (1 mg/ml). After that cells were washed with PBS, fixated with 4% formaldehyde and stained with 300 μl DAPI (3 μM). Thereafter, glass coverslip was placed on a glass slide and photographed using a fluorescence confocal microscope.
(§4) Apoptosis, also known as programmed cell death, is involved in the regulation of cell number in multicellular organism, and the pathogenesis of various diseases, including tumor progression, neurodegenerative disorders and viral infections. […]

[6] = system: C-26 cells; settings: 5 hr, 4.5 μM
Text: as §3, §4

[7] = system: calf thymus DNA; assay: DNA binding (calf thymus DNA platination)
Experimental: The formation of calf thymus DNA platination was also examined. To this end, calf thymus DNA was incubated with different compounds (Table 3) in which the following parameters were determined: […]

C1CCNCC1.Cc1ccncc1.[Cl][Pt][Cl] [Complex 5, trans-[PtCl2(4-picoline)(piperidine)]]
IC50 [1]: 9 ± 1 µM | resistance factor (IC50 resistant/IC50 sensitive) ([2]; 41McisR/41M): 6.0 | IC50 ([2]; 24 hours incubation, MTS): 210 µM | IC50 [3]: 35 ± 4 µM | IC50 [4]: 26 ± 3 µM | apoptosis by MC 540/DAPI staining [5]: large proportion of the OV-1063 cells appeared to be apoptotic | apoptosis by MC 540/DAPI staining [6]: slightly red-fluorescent | % IEC/adduct, frequency of interstrand crosslinks [7]: 2% | unwinding angle per adduct [7]: 11° | t1/2 half time of the binding to calf thymus DNA ([7]; 10 mM NaClO4, 37° C., ri = 0.08, differential pulse polarography): 4.33 h | ΔTm, 0.01M Na+ ([7]; rb = 0.05, 0.01M Na+): +5.5 0.C | ΔTm, 0.2 M ([7]; rb = 0.05, 0.2 M): +0.5 0.C | ΔΔεmax, maximum of the positive CD band at around 275 nm ([7]; rb = 0.05, difference between control and platinated DNA): 0.04
